What is called Km is the substrate concentration at which the rate is half of its maximum.

From publication PMC8861115, “Characterization and structural analyses of a novel glycosyltransferase acting on the β-1,2-glucosidic linkages” (The Journal of Biological Chemistry, 2022) come the findings set out here.

For assay [1], the target named is T1, IaSGT (IALB_1185) (Ignavibacterium album, UniProt I0AIT9).
T1 construct: full length (no N-terminal signal peptide), his6-tag fusion from pET30a(+) NdeI/XhoI, E. coli BL21(DE3); homodimer
T1 sequence (I0AIT9 1-716): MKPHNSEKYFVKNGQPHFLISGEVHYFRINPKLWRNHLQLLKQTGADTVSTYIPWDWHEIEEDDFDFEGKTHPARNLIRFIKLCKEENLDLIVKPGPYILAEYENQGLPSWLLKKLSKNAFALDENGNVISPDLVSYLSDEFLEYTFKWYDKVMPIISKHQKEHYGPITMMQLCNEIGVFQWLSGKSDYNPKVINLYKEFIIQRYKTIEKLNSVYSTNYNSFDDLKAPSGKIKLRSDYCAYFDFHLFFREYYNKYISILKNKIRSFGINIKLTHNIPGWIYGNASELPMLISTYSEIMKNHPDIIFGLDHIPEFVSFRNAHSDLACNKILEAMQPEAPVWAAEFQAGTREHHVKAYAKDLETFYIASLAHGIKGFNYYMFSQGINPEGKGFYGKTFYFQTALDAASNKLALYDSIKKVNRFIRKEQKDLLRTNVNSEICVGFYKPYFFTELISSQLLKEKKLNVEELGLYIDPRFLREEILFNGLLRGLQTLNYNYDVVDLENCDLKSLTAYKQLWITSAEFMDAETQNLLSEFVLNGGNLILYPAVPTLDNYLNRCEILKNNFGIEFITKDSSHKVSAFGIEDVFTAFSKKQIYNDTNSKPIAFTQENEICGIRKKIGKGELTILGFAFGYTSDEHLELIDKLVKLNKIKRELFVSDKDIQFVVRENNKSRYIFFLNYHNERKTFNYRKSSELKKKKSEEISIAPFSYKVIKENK
Put plainly: hexokinase/G6PDH thio-NAD+ coupled glucose release. Format: biochemical. Particulars: acceptor; donor Sop2 fixed 1 mM; pH 5.0, 37 °C. From the text: hexokinase/G6PDH thio-NAD+ coupled glucose release on IaSGT (IALB_1185)

For assay [2], the target named is T2, IaSGT (IALB_1185) (Ignavibacterium album, UniProt I0AIT9, E343G).
T2 construct: full length (no N-terminal signal peptide), his6-tag fusion from pET30a(+) NdeI/XhoI, E. coli BL21(DE3); homodimer
T2 sequence (I0AIT9 1-716 E343G): T1 sequence (I0AIT9 1-716) with E343G
In words: X-ray crystal structure of complex. In kind it is binding. To be noted: subsites -1 and +1, subunit A only.

Each structure is given as a SMILES string. Substitutions are numbered along the chain they refer to.

Consider `N#C[C@H](O[C@@H]1O[C@H](CO[C@@H]2O[C@H](CO)[C@@H](O)[C@H](O)[C@H]2O)[C@@H](O)[C@H](O)[C@H]1O)c1ccccc1` [Amygdalin], for which, in assay [1], the Km amounted to 150 ± 20 µM.

Consider `OC[C@H]1NC[C@H](O)[C@@H](O)[C@@H]1O` [DNJ, 1-deoxynojirimycin], for which, in assay [2], the “X-ray crystal structure of complex” value was “The electron densities of DNJ molecules were observed only in subunit A in the E343G mutant”.
